The test system of one experiment is Pyricularia oryzae. Description: microbe, parasite or virus in culture. The class given is cell-based. The following applies: 168 h, read-out: control.
Another experiment relates to Phakopsora pachyrhizi. Description: Phakopsora pachyrhizi test in soybean (in vivo on plants), preventive activity. To be noted: preventive spray on soybean plants, inoculated one day after treatment, disease severity rated vs untreated check. As to the method: Example 8 (In Vivo on Plants): Phakopsora pachyrhizi Test in Soybean
Compounds were dissolved in 2% DMSO/Acetone & then mixed with water to the calibrated spray volume of 50 ml and poured into the spray bottles for further applications.
To test the preventive activity of compounds, healthy young soybean plants raised in the greenhouse were sprayed with active compound preparation at the stated application rates inside the spray cabinets using hallowcone nozzles. One day after treatment, the plants were inoculated with spore suspension containing 2.1×10^6 Phakopsora pachyrhizi inoculum. The inoculated plants were then kept in greenhouse chamber at 25° C. temperature & 90% Relative Humidity for disease expression.
A visual assessment of compound's performance was carried out by rating the disease severity (0-100% scale) on treated plants on 3, 7, 10 & 15 days after application. Efficacy (% control) of the compounds was calculated by comparing the disease rating in the treatment with the one of the untreated control. The sprayed plants were also assessed for compound's plant compatibility by recording symptoms like necrosis, chlorosis & stunting.

In the next experiment the test system is Botrytis cinerea. Description: Botrytis cinerea (Gray mold) in vitro test, radial growth on Potato Dextrose Agar. To be noted: 168 h, read-out: control.
The test system of a further experiment is Alternaria solani. In words: Alternaria solani (early blight of tomato/potato) in vitro test, radial growth on Potato Dextrose Agar. To be noted: 168 h, read-out: control.
The test system of another experiment is Septoria lycopersici. In words: Septoria lycopersici (Leaf spot of tomato) in vitro test, radial growth on Potato Dextrose Agar. To be noted: 168 h, read-out: control.
In a further experiment the test system is Rhizoctonia solani. The following applies: 168 h, read-out: control.
The subject of the next experiment is Colletotrichum capsici. Description: Colletotrichum capsici (anthracnose) in vitro test, radial growth on Potato Dextrose Agar. To be noted: Colletotrichum truncatum, 168 h, read-out: control.

The structures appear in SMILES notation.

Experimental for Colletotrichum capsici: Colletotrichum capsici (anthracnose): Compounds were dissolved in 0.3% DMSO & then added to Potato Dextrose Agar medium just prior to dispensing it into Petri dishes. 5 ml medium with compound in the desired concentration was dispensed into 60 mm sterile petri-plates. After solidification each plate was seeded with 5 mm size mycelial disc taken form periphery of actively growing virulent culture plate. Plates were incubated in growth chambers at 25° C. temperature & 60% Relative Humidity for seven days and radial growth was measured.

One may read the pest or weed control as the degree to which the test organism was suppressed or injured, in per cent. A high value points to strong suppression. For the compound `CCN(C)C=Nc1cc(C)c(C(=O)CSc2ccccc2)cc1C` [Compound 1, N′-(2,5-dimethyl-4-(2-(phenylthio)acetyl)phenyl)-N-ethyl-N-methylformimidamide], the inhibition of growth at 300 ppm with Pyricularia oryzae, with Botrytis cinerea, with Alternaria solani, in the experiment with Septoria lycopersici and with Rhizoctonia solani was more than 70% in each case. Also, the pest or weed control at 500 ppm in the experiment with Phakopsora pachyrhizi is more than 90%.

For `CCN(C)C=Nc1cc(C)c(C(=O)COc2cccc(Br)c2)cc1C` [Compound 3, N′-(4-(2-(3-bromophenoxy)acetyl)-2,5-dimethylphenyl)-N-ethyl-N-methylformimidamide], the inhibition of growth at 300 ppm in the experiment with Pyricularia oryzae, in the experiment on Botrytis cinerea, with Alternaria solani, in the experiment with Septoria lycopersici, in the experiment on Rhizoctonia solani and in the experiment with Colletotrichum capsici was more than 70% throughout.

In the case of `CCN(C)C=Nc1cc(C)c(C(=O)CSc2cccc(F)c2)cc1C` [Compound 4, N-ethyl-N′-(4-(2-((3-fluorophenyl)thio)acetyl)-2,5-dimethylphenyl)-N-methylformimidamide], the inhibition of growth at 300 ppm with Pyricularia oryzae, with Botrytis cinerea, in the experiment with Alternaria solani, with Septoria lycopersici, with Rhizoctonia solani and with Colletotrichum capsici was more than 70% each time. This compound displayed a pest or weed control at 500 ppm in the experiment with Phakopsora pachyrhizi of more than 90%.

For `CCN(C)C=Nc1cc(C)c(C(=O)CSc2ccc(Cl)c(Cl)c2)cc1C` [Compound 8, N′-(4-(2-((3,4-dichlorophenyl)thio)acetyl)-2,5-dimethylphenyl)-N-ethyl-N-methylformimidamide], the inhibition of growth at 300 ppm in the experiment with Pyricularia oryzae, with Botrytis cinerea, with Alternaria solani and in the experiment with Rhizoctonia solani was more than 70% in each case. In the experiment on Phakopsora pachyrhizi, this compound had a pest or weed control at 500 ppm of more than 90%.

Turning to `CCN(C)C=Nc1cc(C)c(C(=O)COc2ccc(OC)cc2)cc1C` [Compound 10, N-ethyl-N′-(4-(2-(4-methoxyphenoxy)acetyl)-2,5-dimethylphenyl)-N-methylformimidamide], the inhibition of growth at 300 ppm with Pyricularia oryzae, in the experiment with Alternaria solani, in the experiment on Septoria lycopersici and in the experiment with Rhizoctonia solani was more than 70% in each case. Also, the pest or weed control at 500 ppm in the experiment on Phakopsora pachyrhizi was more than 90%.

In the case of `CCN(C)C=Nc1cc(C)c(C(=O)CSc2ncc(C(F)(F)F)cc2Cl)cc1C` [Compound 18, N′-(4-(2-((3-chloro-5-(trifluoromethyl)pyridin-2-yl)thio)acetyl)-2,5-dimethylphenyl)-N-ethyl-N-methylformimidamide], the inhibition of growth at 300 ppm with Pyricularia oryzae, in the experiment with Botrytis cinerea, in the experiment on Alternaria solani and in the experiment with Rhizoctonia solani was more than 70% throughout. In addition, the pest or weed control at 500 ppm in the experiment with Phakopsora pachyrhizi is more than 90%.

In the case of `CCN(C)C=Nc1cc(C)c(C(=O)COc2cccc(C)c2)cc1Cl` [Compound 26, N′-(2-chloro-5-methyl-4-(2-(m-tolyloxy)acetyl)phenyl)-N-ethyl-N-methylformimidamide], the pest or weed control at 500 ppm in the experiment on Phakopsora pachyrhizi is more than 90%. Further, the inhibition of growth at 300 ppm with Alternaria solani was more than 70%.

On to `CCN(C)C=Nc1cc(C)c(C(=O)CSc2cccc(OC)c2)cc1C` [Compound 27, N-ethyl-N′-(4-(2-((3-methoxyphenyl)thio)acetyl)-2,5-dimethylphenyl)-N-methylformimidamide], for which the inhibition of growth at 300 ppm with Pyricularia oryzae, in the experiment with Botrytis cinerea, in the experiment on Alternaria solani, in the experiment on Septoria lycopersici, with Rhizoctonia solani and with Colletotrichum capsici was more than 70% in each case.

As to `CCN(C)C=Nc1cc(C)c(C(=O)CSc2ccc(Cl)cc2)cc1Cl` [Compound 38, N′-(2-chloro-4-(2-((4-chlorophenyl)thio)acetyl)-5-methylphenyl)-N-ethyl-N-methylformimidamide], the pest or weed control at 500 ppm in the experiment on Phakopsora pachyrhizi was more than 90%.

For the compound `CCN(C)C=Nc1cc(C)c(C(=O)CSc2ccccc2Br)cc1Cl` [Compound 39, N′-(4-(2-((2-bromophenyl)thio)acetyl)-2-chloro-5-methylphenyl)-N-ethyl-N-methylformimidamide], the pest or weed control at 500 ppm with Phakopsora pachyrhizi was more than 90%.

Turning to `Cc1cc(C(=O)COc2cccc(Cl)c2)c(C)cc1N=CN1CCOCC1` [Compound 40, 2-(3-chlorophenoxy)-1-(2,5-dimethyl-4-((morpholinomethylene)amino)phenyl)ethan-1-one], in the experiment with Phakopsora pachyrhizi, the pest or weed control at 500 ppm was more than 90%. Moreover, the inhibition of growth at 300 ppm in the experiment with Alternaria solani was more than 70%.

For the compound `Cc1cc(C(=O)COc2cccc(Cl)c2)c(C)cc1N=CN1CCCCC1` [Compound 41, 2-(3-chlorophenoxy)-1-(2,5-dimethyl-4-((piperidin-1-ylmethylene)amino)phenyl)ethan-1-one], the pest or weed control at 500 ppm in the experiment with Phakopsora pachyrhizi is more than 90%. Moreover, the inhibition of growth at 300 ppm in the experiment with Alternaria solani and in the experiment on Rhizoctonia solani was more than 70% throughout.

For `Cc1cc(C(=O)COc2cccc(Cl)c2)c(C)cc1N=CN(C)C(C)C` [Compound 42, N′-(4-(2-(3-chlorophenoxy)acetyl)-2,5-dimethylphenyl)-N-isopropyl-N-methylformimidamide], the inhibition of growth at 300 ppm with Pyricularia oryzae, with Alternaria solani, in the experiment on Septoria lycopersici and in the experiment on Rhizoctonia solani was more than 70% in each case. This compound also showed a pest or weed control at 500 ppm with Phakopsora pachyrhizi of more than 90%.

As to `C=CCN(C)C=Nc1cc(C)c(C(=O)COc2cccc(Cl)c2)cc1C` [Compound 43, N-allyl-N′-(4-(2-(3-chlorophenoxy)acetyl)-2,5-dimethylphenyl)-N-methylformimidamide], in the experiment on Phakopsora pachyrhizi, the pest or weed control at 500 ppm was more than 90%.

`CCN(C)C=Nc1cc(C)c(C(=O)COc2ccccc2F)cc1Cl` [Compound 44, N′-(2-chloro-4-(2-(2-fluorophenoxy)acetyl)-5-methylphenyl)-N-ethyl-N-methylformimidamide] yielded a pest or weed control at 500 ppm in the experiment on Phakopsora pachyrhizi of more than 90%.

For `CCN(C)C=Nc1cc(C)c(C(=O)COc2ccc(F)cc2)cc1Cl` [Compound 45, N′-(2-chloro-4-(2-(4-fluorophenoxy)acetyl)-5-methylphenyl)-N-ethyl-N-methylformimidamide], in the experiment with Phakopsora pachyrhizi, the pest or weed control at 500 ppm was more than 90%.

`Cc1cc(C(=O)COc2cccc(Cl)c2)c(C)cc1N=CNC#N` [Compound 46, N′-(4-(2-(3-chlorophenoxy)acetyl)-2,5-dimethylphenyl)-N-cyanoformimidamide] displayed a pest or weed control at 500 ppm with Phakopsora pachyrhizi of more than 90%.

Turning to `Cc1ccc(SCC(=O)c2cc(C)c(N=CN(C)C(C)C)cc2C)cc1C` [Compound 47, N′-(4-(2-((3,4-dimethylphenyl)thio)acetyl)-2,5-dimethylphenyl)-N-isopropyl-N-methylformimidamide], the inhibition of growth at 300 ppm in the experiment on Pyricularia oryzae, in the experiment with Alternaria solani and in the experiment on Rhizoctonia solani was more than 70% each time. In the experiment on Phakopsora pachyrhizi, this compound showed a pest or weed control at 500 ppm of more than 90%.

`C=CCN(C)C=Nc1cc(C)c(C(=O)CSc2ccc(C)c(C)c2)cc1C` [Compound 48, N-allyl-N′-(4-(2-((3,4-dimethylphenyl)thio)acetyl)-2,5-dimethylphenyl)-N-methylformimidamide] registered a pest or weed control at 500 ppm in the experiment with Phakopsora pachyrhizi of more than 90%.

For `Cc1ccc(SCC(=O)c2cc(C)c(N=CN3CCOCC3)cc2C)cc1C` [Compound 49, 1-(2,5-dimethyl-4-((morpholinomethylene)amino)phenyl)-2-((3,4-dimethylphenyl)thio)ethan-1-one], the pest or weed control at 500 ppm in the experiment on Phakopsora pachyrhizi is more than 90%.

In turn, `CCN(C)C=Nc1cc(C)c(C(=O)CSc2ccc(Cl)c(Cl)c2)cc1Cl` [Compound 50, N′-(2-chloro-4-(2-((3,4-dichlorophenyl)thio)acetyl)-5-methylphenyl)-N-ethyl-N-methylformimidamide] returned a pest or weed control at 500 ppm in the experiment with Phakopsora pachyrhizi of more than 90%.

As for `CCN(C)C=Nc1cc(C)c(C(=O)COc2c(C)cc(C)cc2Br)cc1C` [Compound 89, N′-(4-(2-(2-bromo-4,6-dimethylphenoxy)acetyl)-2,5-dimethylphenyl)-N-ethyl-N-methylformimidamide], the inhibition of growth at 300 ppm in the experiment on Pyricularia oryzae, in the experiment with Botrytis cinerea, in the experiment on Alternaria solani, with Septoria lycopersici, in the experiment with Rhizoctonia solani and in the experiment with Colletotrichum capsici was more than 70% each time.

Consider `CCN(C)C=Nc1cc(C)c(C(=O)CN(C)c2ccc(C)cc2)cc1C` [Compound 92, N′-(2,5-dimethyl-4-(N-methyl-N-(p-tolyl)glycyl)phenyl)-N-ethyl-N-methylformimidamide], for which the inhibition of growth at 300 ppm in the experiment on Pyricularia oryzae, with Alternaria solani, in the experiment with Septoria lycopersici, in the experiment with Rhizoctonia solani and in the experiment on Colletotrichum capsici was more than 70% each time.
